Test results published in patent publication US20050014706A1, “Method of treating tuberculosis” (priority 2003, published 2005).
In brackets after ≈: the same amount, converted by molar mass. Read-outs that look alike come from different tables or passages of the source.

How the values were obtained:
M. tuberculosis H37Rv [1] = experiment: MIC vs. M. tuberculosis H37Rv, microplate Alamar Blue assay (MABA); assay type: cell-based; settings: for enhancement in potency of macrolide over counterpart ketolide: vs. telithromycin, RU004, RU56006 respectively; for MIC / activity vs. M. tuberculosis in words: in vitro
tubercle bacillus [2] = settings: literature; cited from earlier work
tubercle bacillus [3] = settings: literature (Luna-Herrera 1995; Truffot-Pernot 1995); cited from earlier work
VERO cells [4] = experiment: Cytotoxicity against VERO cells (MTS, 72 hours); settings: for IC50: read-out: Vero IC50 (toxicity); for toxicity / cytotoxicity in words: in vitro study
[5] = system: J774.1 macrophage cell line; experiment: Cytotoxicity against J774.1 macrophage cell line; assay type: cell-based, murine; settings: for IC50: Mus musculus, J774.1
VERO cells [6] = system: VERO cells
M. tuberculosis H37Rv [7] = settings: positive quality control, MABA; cited from earlier work
M. tuberculosis Erdman = assay type: in vivo, BALB/c mice; settings: for activity against M. tuberculosis in the acute phase of infection: 100 and 200 mg/kg qd (RU60887 100 mg/kg only)
[8] = Overt toxicity in mice, escalating 5-day cycles; assay type: in vivo, Balb/C mice; settings: once daily 5-day cycles, sequentially 200, 300, 400, 500 mg/kg
Description: Prior to assessing in vivo efficacy, RU66252 and RU69874 were administered to pairs of female Balb/C mice once daily for 5-day cycles, and observed for overt signs of toxicity (e.g., weight loss, ruffled fur, and huddling), after which the mice were rested for 1 or 2 days. Then the dosage was increased for another 5-day cycle. Overall, the same mice received sequentially for 5 days: 200, 300, 400, and 500 mg/kg.

M. tuberculosis = experiment: Activity against M. tuberculosis in mice (follow-up, dose response); assay type: in vivo
[9] = Mycobacterium tuberculosis, H37RV, Table 1a, 11,12-carbamate derivatives, read-out: Anti-TB Activity MIC
[10] = Mycobacterium tuberculosis, H37RV, read-out: minimum inhibitory concentration (MIC) against M. tuberculosis
[11] = Table 1a, J774 cells, read-out: J774 IC50 (toxicity)

| Structure (SMILES) | enhancement in potency of macrolide over counterpart ketolide (M. tuberculosis H37Rv [1]) [fold] | MIC (M. tuberculosis H37Rv [1]; [9]) [µM] | MIC (M. tuberculosis H37Rv [1]; [10]) [µM] | MIC / activity vs. M. tuberculosis in words (M. tuberculosis H37Rv [1]) | IC50 [5, 11] [µM] | IC50 (VERO cells [4]; Chlorocebus sabaeus, Vero) [µM] | activity against M. tuberculosis in the acute phase of infection (M. tuberculosis Erdman) | overt signs of toxicity (weight loss, ruffled fur, huddling) [8] | toxicity / cytotoxicity in words (VERO cells [4]) | also measured |
| --- | --- | --- | --- | --- | --- | --- | --- | --- | --- | --- |
| CC[C@H]1OC(=O)[C@H](C)[C@@H](O[C@H]2C[C@@](C)(OC)[C@@H](O)[C@H](C)O2)[C@H](C)[C@@H](O[C@@H]2O[C@H](C)C[C@H](N(C)C)[C@H]2O)[C@](C)(OC)C[C@@H](C)C(=O)[C@H](C)[C@@H](O)[C@]1(C)O [Clarithromycin, reference compound] | 16 |  |  |  |  |  |  |  |  | MIC (M. tuberculosis H37Rv [1]; Table 2a, 11,12-diols, read-out: Anti-TB Activity MIC): 8 µM (≈ 5.98 µg/mL); MIC against the tubercle bacillus (tubercle bacillus [2]): 4 to 64 µg/mL; activity in mouse models (tubercle bacillus [3]): marginal and nil; IC50 (VERO cells [4]; Table 2a, Vero cells): 41 µM |
| CC[C@H]1OC(=O)[C@@](C)(F)C(=O)[C@H](C)[C@@H](O[C@@H]2O[C@H](C)C[C@H](N(C)C)[C@H]2O)[C@](C)(OCC#Cc2cc(-c3cnc4ccccc4c3)no2)C[C@@H](C)C(=O)[C@H](C)[C@H]2NC(=O)O[C@@]21C [Compound A323348] |  | 0.38 (≈ 0.323 µg/mL) | 0.38 (≈ 0.323 µg/mL) | very low | 15.3 | 24.3 |  |  |  | toxicity / cytotoxicity in words (VERO cells [6]): comparable to clarithromycin |
| NNC(=O)c1ccncc1 [Isoniazid] |  |  |  |  |  |  |  |  |  | expected MIC range of quality control compound (M. tuberculosis H37Rv [7]): 0.025 to 0.1 µg/mL |
| CC[C@H]1OC(=O)[C@H](C)C(OC2CC(C)(OC)[C@@H](O)[C@H](C)O2)[C@H](C)[C@@H](O[C@@H]2O[C@H](C)C[C@H](N(C)C)[C@H]2O)[C@](C)(OC)C[C@@H](C)C(=O)[C@H](C)[C@H]2N(NCCCc3ccnc4ccccc34)C(=O)O[C@]12C (stereo partly drawn) [RU66252] | 16 |  |  | very low |  |  | dose-dependent activity | No signs of overt toxicity | comparable to clarithromycin | MIC (M. tuberculosis H37Rv [1]; Table 1a, 11,12-carbamate derivatives, read-out: Anti-TB Activity MIC): 0.25 µM (≈ 0.239 µg/mL); MIC (M. tuberculosis H37Rv [1]; Table 3, parallel-synthesis carbazate library products): 9 µM (≈ 8.61 µg/mL); MIC vs. M. tuberculosis (M. tuberculosis H37Rv [1]; follow-up assays): about 9 μM; MIC (M. tuberculosis H37Rv [1]; read-out: minimum inhibitory concentration (MIC) against M. tuberculosis): 0.25 µM (≈ 0.239 µg/mL); colonies from treated mouse lung homogenates (M. tuberculosis Erdman; 10^−2 dilution plates): no colonies; M. tuberculosis inhibition in mice (M. tuberculosis; 150 mg/kg and 200 mg/kg): significant; dose response in mice (M. tuberculosis; between 50 and 200 mg/kg): shows a dose response; activity against M. tuberculosis in mice (M. tuberculosis; mice): active |
| CC[C@H]1OC(=O)[C@H](C)[C@@H](O[C@H]2C[C@@](C)(OC)[C@@H](O)[C@H](C)O2)[C@H](C)[C@@H](O[C@@H]2O[C@H](C)C[C@H](N(C)C)[C@H]2O)[C@](C)(OC)C[C@@H](C)C(=O)[C@H](C)[C@H]2N(CCCCn3cnc(-c4cccnc4)c3)C(=O)O[C@]12C [RU69874] | 126 | 0.38 (≈ 0.369 µg/mL) | 0.38 (≈ 0.369 µg/mL) | very low | 58.6 | 27 | less activity | No signs of overt toxicity | comparable to clarithromycin | selectivity index (SI) ([5]; J774 cells): 154; IC50 ([5]; based on J774 cells, read-out: toxicity): 59 µM |
